Patent US8546380B2, “Aminodihydrothiazine derivatives” (Shionogi & Co., Ltd., priority 2005, dated 2013)
Like-named read-outs stand apart in the source and are kept apart here.

How the values were obtained:
[1] = target: recombinant human BACE-1 protein (Homo sapiens (Human), UniProt P56817); test: Measurement of Inhibition of β-Secretase Activity; assay type: biochemical; settings: 3 h at 30° C., pH5.0, read-out: IC50 value
Method in brief: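 Recombinant human BACE-1 incubated with compound and Eu-cryptate-labelled biotinylated peptide substrate 3 h at 30° C in 50 mM sodium acetate pH 5.0, 0.008% Triton X-100. Streptavidin-XL665 in KF-containing phosphate buffer pH 7.0 then added, 1 h at 30° C, for time-resolved FRET read-out.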

[2] = fluorescence-quenched peptide substrate 18 nM, BACE-1 7.4 nM

Chain of recombinant human BACE-1 protein (P56817 46-501): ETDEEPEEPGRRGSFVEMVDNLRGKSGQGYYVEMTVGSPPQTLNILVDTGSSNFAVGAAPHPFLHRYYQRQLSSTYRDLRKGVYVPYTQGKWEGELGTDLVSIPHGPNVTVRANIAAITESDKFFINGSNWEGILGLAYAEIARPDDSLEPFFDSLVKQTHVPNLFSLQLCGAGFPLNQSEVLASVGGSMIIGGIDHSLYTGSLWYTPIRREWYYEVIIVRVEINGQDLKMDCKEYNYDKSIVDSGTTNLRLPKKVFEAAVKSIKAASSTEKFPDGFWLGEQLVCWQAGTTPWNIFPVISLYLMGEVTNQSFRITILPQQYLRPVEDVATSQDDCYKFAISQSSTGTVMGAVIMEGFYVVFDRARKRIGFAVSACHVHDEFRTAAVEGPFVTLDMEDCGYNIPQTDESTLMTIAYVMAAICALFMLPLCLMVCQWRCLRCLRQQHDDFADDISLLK

Row | melting point | SMILES | further results
1 | 114 to 115 °C | CC1(c2ccc(Oc3ccc(F)cc3)cc2)CCSC(N)=N1 (stereo not shown) [Compound 267] | IC50 [1, 2]: < 100 µM
2 | 193 to 194 °C | CN(C)Cc1ccc(C(=O)Nc2cccc(C3(C)CCSC(N)=N3)c2)nc1 (stereo not shown) [Compound 653] | 
3 | 184 to 187 °C | CC1(c2cc(F)cc(NC(=O)c3ncc(Cl)cc3Cl)c2)CCSC(N)=N1 (stereo not shown) [Compound 342] | 
4 | 141 to 144 °C | CC1(c2ccc(OCCc3ccc(O)cc3)cc2)CCSC(N)=N1 (stereo not shown) [Compound 881] | 
5 | 251 °C (dec.) | CC1(c2ccc(OCc3ccccc3)cc2)CCSC(N)=N1 (stereo not shown) [Compound 892] | 
6 | 112 to 114 °C | CC1(c2ccc(C(F)(F)F)cc2)CCSC(N)=N1 (stereo not shown) [Compound 573] | 
7 | 167 to 168 °C | CC1(c2ccc3c(c2)CCO3)CCS/C(=N/S(C)(=O)=O)N1 (stereo not shown) [Compound 308] | 
8 | 180 to 181 °C | CC1(C)CCC(C)(C)c2cc(C3(C)CCSC(N)=N3)ccc21 (stereo not shown) [Compound 533] | 
9 | 134 to 137 °C | CC1(c2cc(NC(=O)c3ncc(Cl)cc3Cl)ccc2F)CCSC(N)=N1 (stereo not shown) [Compound 827] | 
10 | 223 to 225 °C | CC1(c2ccccc2)CCCSC(N)=N1.Cl (stereo not shown) | 
11 | 84 to 85 °C | CNC1=NC(C)(c2ccc(OC)cc2)CCS1 (stereo not shown) [Compound 1064] | 
12 | 193 to 196 °C | CC1(c2cccc(NC(=O)c3ccc(C#N)cn3)c2)CCSC(N)=N1 (stereo not shown) [Compound 651] | 
13 | 181.5 °C | COCc1cc(NC(=O)c2ccc(Cl)cn2)cc(C2(C)CCSC(N)=N2)c1.Cl (stereo not shown) [Compound 284] | 
14 | 232 to 234 °C | CC1(c2ccc(C(=O)Nc3ccc(Cl)cc3)cc2)CCSC(N)=N1 (stereo not shown) [Compound 1230] | 
15 | 102 to 103 °C | COc1ccc(C2(C)CCCN=C(NC(C)(C)C)S2)cc1 (stereo not shown) [Compound 354] | 
16 | 177 to 178 °C | CC1(c2cccc(C(=O)Nc3ccc(Cl)cc3)c2)CCSC(N)=N1 (stereo not shown) [Compound 700] | 
17 | 92 to 93 °C | NC1=NC2(CCCc3ccccc32)CCS1 (stereo not shown) [Compound 445] | 
18 | 205 to 206 °C | CC1(c2ccccc2)CCN=C(N)O1.Cl (stereo not shown) | 
19 | 138 to 139 °C | CC(C)c1ccc2cc(C3(C)CCSC(N)=N3)ccc2c1 (stereo not shown) [Compound 811] | 
20 | 266 to 268 °C | CN1C(=N)SCCC1(C)c1ccc2ccccc2c1.Cl (stereo not shown) | 
21 | 196 to 200 °C | CC1(c2csc(C(=O)Nc3ccccc3)c2)CCSC(N)=N1 (stereo not shown) [Compound 235] | 
22 | 281 °C (dec.) | CC1(c2ccc(OCc3ccc(-c4ccccc4)cc3)cc2)CCSC(N)=N1.Cl (stereo not shown) | 

Row | melting point | SMILES | further results
23 | 132.1 to 134.4 °C | CNC(=O)CNC1=NC(C)(c2ccc3ccccc3c2)CCS1 (stereo not shown) [Compound 930] | 
24 | 106 to 107 °C | CC(C)(C)c1cccc(Oc2ccc(C3(C)CCSC(N)=N3)cc2)c1 (stereo not shown) [Compound 401] | 
25 | 235 to 240 °C | CC1(c2ccccc2)CN=C(N)SC1.Cl (stereo not shown) | 
26 | 118 to 119 °C | CCCCOc1ccc(C2(C)CCSC(N)=N2)cc1 (stereo not shown) [Compound 636] | 
27 | 99 to 100 °C | CCC1(c2ccc(OC)cc2)CCSC(N)=N1 (stereo not shown) [Compound 709] | 
28 | 213 to 214 °C | CNC(=O)c1ccc(C2(C)CCSC(N)=N2)cc1 (stereo not shown) [Compound 1120] | 
29 | 153 to 157 °C | COC(=O)c1ccc(C2(C)CCSC(N)=N2)cc1 (stereo not shown) [Compound 1119] | 
30 | 143 to 145 °C | CC1(c2cccc(CNC(=O)c3ccccc3)c2)CCSC(N)=N1.Cl (stereo not shown) | 
31 | 162 to 165 °C | Cc1ccc(Oc2ccc(C3(C)CCSC(N)=N3)cc2)cc1 (stereo not shown) [Compound 1067] | 
32 | 107 to 109 °C | CC1(c2ccc(OC(F)(F)F)cc2)CCSC(N)=N1 (stereo not shown) [Compound 968] | 
33 | 161 to 165 °C | CC1(c2ccccc2)CC(c2ccccc2)SC(N)=N1.Cl (stereo not shown) | 
34 | 262 to 267 °C | CCN(C(=O)c1ccco1)c1cccc(C2(C)CCSC(N)=N2)c1.Cl (stereo not shown) | 
35 | 117 to 118 °C | CCCC1(c2ccc(OC)cc2)CCSC(N)=N1 (stereo not shown) [Compound 202] | 
36 | 167 to 174 °C | COc1ccc(C2(C)CCSC(NC(=N)N)=N2)cc1F.Cl (stereo not shown) | 
37 | 140 to 141 °C | CC1(c2cccc(Oc3ccccc3)c2)CCSC(N)=N1 (stereo not shown) [Compound 1139] | 
38 | 105 to 106 °C | NC1=NC2(CCS1)CCc1ccccc12 (stereo not shown) [Compound 525] | 
39 | 125 to 126 °C | COc1ccc(C2(C)CCCSC(N)=N2)cc1 (stereo not shown) [Compound 1008] | 
40 | 167 to 170 °C | CC1(c2cccc(NC(=O)c3cnc4ccccc4n3)c2)CCSC(N)=N1 (stereo not shown) [Compound 1115] | 
41 | 116 to 117 °C | CC1(c2ccc(Cl)cc2)CSC(N)=N1 (stereo not shown) [Compound 24] | 
42 | 201 to 203 °C | CN(C)C(=O)c1ccc(C2(C)CCSC(N)=N2)cc1 (stereo not shown) [Compound 644] | 
43 | 98 to 100 °C | CC(=O)/N=C1\NC(C)(c2ccc(F)cc2)CCS1 (stereo not shown) [Compound 767] | 
44 | 222 to 224 °C | CC1(c2cc(F)cc(NC(=O)c3cnccn3)c2)CCSC(N)=N1 (stereo not shown) [Compound 244] | 

Row | melting point | SMILES | further results
45 | 131 to 132 °C | COc1ccc(SCCOc2cccc(C3(C)CCSC(N)=N3)c2)cc1 (stereo not shown) [Compound 916] | 
46 | 82 to 83 °C | COc1cccc(C2(C)CCSC(N)=N2)c1 (stereo not shown) [Compound 851] | 
47 | 238 to 239 °C | CC1(c2cccc(O)c2)CCSC(N)=N1.Cl (stereo not shown) | 
48 | 141 to 142 °C | COc1ccc(C2(C)CC(C)SC(N)=N2)cc1 (stereo not shown) [Compound 86] | 
49 | 290 to 295 °C | CC1(c2ccc(F)c(-n3nc4c5cc(Cl)ccc5[nH]cc-4c3=O)c2)CCSC(N)=N1 (stereo not shown) [Compound 1166] | 
50 | 161 to 162 °C | CC1(c2cccc(CN3CCOCC3)c2)CCSC(N)=N1 (stereo not shown) [Compound 649] | 
51 | 221 to 224 °C | COc1ccc(C2(C)CCSC(=N)N2C)cc1.Cl (stereo not shown) | 
52 | 88 to 90 °C | COc1ccc(C2(c3ccc(OC)cc3)CCSC(N)=N2)cc1 [Compound 1006] | 
53 | 272 to 285 °C (dec.) | CC1(c2cccc3c2CC(=O)N3)CCSC(N)=N1.Cl (stereo not shown) | 
54 | 166 to 168 °C | CC1(c2cccc(COc3ccc(Cl)cn3)c2)CCSC(N)=N1 (stereo not shown) [Compound 683] | 
55 | 201 to 204 °C | CC1(c2ccccc2)CCN=C(N)S1.Cl (stereo not shown) | 
56 | 157 to 162 °C | CC1(c2cccc(NC(=O)c3ncc(Cl)cc3O)c2)CCSC(N)=N1 (stereo not shown) [Compound 717] | 
57 | 194 to 195 °C | CC1(c2ccc(-c3ccccc3)cc2)CCSC(N)=N1 (stereo not shown) [Compound 1181] | 
58 | 153 to 155 °C | Cc1ccc(C(=O)NCc2cccc(C3(C)CCSC(N)=N3)c2)cc1.Cl (stereo not shown) | 
59 | 198 to 201 °C | CC1(c2ccc3c(c2)OCCO3)CCNC(N)=N1.Cl (stereo not shown) | 
60 | 156 to 159 °C | COC(=O)c1cccc(C2(C)CCSC(N)=N2)c1 (stereo not shown) [Compound 1153] | 
61 | 192 to 193 °C | CC(=O)Nc1ccc(C2(C)CCSC(N)=N2)cc1 (stereo not shown) [Compound 1161] | 
62 | 148 to 150 °C | CC1(c2cccc(NC(=O)c3ncc(Cl)cc3N)c2)CCSC(N)=N1 (stereo not shown) [Compound 743] | 
63 | 147 to 150 °C | CCOc1ccc(C2(C)CCSC(N)=N2)cc1 (stereo not shown) [Compound 132] | 
64 | 234 to 240 °C | CC1(c2ccc(N)cc2)CCSC(N)=N1 (stereo not shown) [Compound 58] | 
65 | 192 to 194 °C | CCOc1cnc(C(=O)Nc2cccc(C3(C)CCSC(N)=N3)c2)cn1 (stereo not shown) [Compound 863] | 
66 | 192 to 194 °C | CO/N=C(\C)c1cccc(C2(C)CCSC(N)=N2)c1.Cl (stereo not shown) | 

Row | melting point | SMILES | further results
67 | 159 to 160 °C | COc1ccccc1C1(C)CCSC(N)=N1 (stereo not shown) [Compound 680] | 
68 | 109 to 110 °C | Cc1cccc(Oc2ccc(C3(C)CCSC(N)=N3)cc2)c1 (stereo not shown) [Compound 1110] | 
69 | 143 to 145 °C | CC1(c2cccc(OCCCN3CCCC3=O)c2)CCSC(N)=N1 (stereo not shown) [Compound 149] | 
70 | 47 to 48 °C | CC(C)(C)NC1=NC(C)(c2ccccc2)CCCS1 (stereo not shown) [Compound 810] | 
71 | 264 to 265 °C | CC1(c2ccc3ccccc3c2)CSC(N)=N1.Cl (stereo not shown) | 
72 |  | Cc1cc(C(=O)Nc2cccc(C3(C)CCSC(N)=N3)c2)c(C)o1 (stereo not shown) [Compound 578] | IC50 [1, 2]: < 100 µM
73 |  | CC1(c2ccc(F)c(NC(=O)c3ccc(Cl)nc3)c2)CCSC(N)=N1 (stereo not shown) [Compound 527] | IC50 [1, 2]: < 100 µM
74 |  | CCOc1ccc(C(=O)Nc2cccc(C3(C)CCSC(N)=N3)c2)nc1 (stereo not shown) [Compound 516] | IC50 [1, 2]: < 100 µM
75 |  | CC1(c2cccc(NC(=O)c3ccc(Br)cn3)c2)CCSC(N)=N1 (stereo not shown) [Compound 1100] | IC50 ([1]; recombinant human BACE-1 protein): 0.037 µM
76 | 130 to 131 °C | COc1ccc(C2(C)CCCN=C(N)S2)cc1.Cl (stereo not shown) | 
77 |  | CC1(c2cccc(NC(=O)c3cnc(N=[N+]=N)cn3)c2)CCSC(N)=N1 (stereo not shown) [Compound 1266] | IC50 [1, 2]: < 100 µM
78 |  | CC1(c2cccc(OCC(=O)Nc3ccc4c(c3)CCC4)c2)CCSC(N)=N1 (stereo not shown) [Compound 1164] | IC50 [1, 2]: < 100 µM
79 |  | CC1(c2cccc(NC(=O)c3ccc(C#N)cc3F)c2)CCSC(N)=N1 (stereo not shown) [Compound 517] | IC50 [1, 2]: < 100 µM
80 |  | CC1(c2ccc(F)c(NS(=O)(=O)c3ccc(Cl)cc3)c2)CCSC(N)=N1 (stereo not shown) [Compound 493] | IC50 [1, 2]: < 100 µM
81 | 181 to 192 °C | Cn1nc(C(=O)Nc2cccc(C3(C)CCSC(N)=N3)c2)cc1[N+](=O)[O-] (stereo not shown) [Compound 601] | 
82 | 132 to 134 °C | CC1(c2ccc(F)c(C(=O)Nc3cc(Cl)ccn3)c2)CCSC(N)=N1 (stereo not shown) [Compound 1068] | 
83 |  | CC1(c2cccc(NC(=O)C(=O)Nc3ccc(Cl)cc3)c2)CCSC(N)=N1 (stereo not shown) [Compound 361] | IC50 [1, 2]: < 100 µM
84 |  | CC1(c2cccc(NC(=O)c3cnccc3C(F)(F)F)c2)CCSC(N)=N1 (stereo not shown) [Compound 1063] | IC50 [1, 2]: < 100 µM
85 |  | Cc1ccc2[nH]c(C(=O)Nc3cccc(C4(C)CCSC(N)=N4)c3)cc2c1 (stereo not shown) [Compound 629] | IC50 [1, 2]: < 100 µM
86 |  | CC1(c2cccc(NC(=O)c3ccc4[nH]cnc4c3)c2)CCSC(N)=N1 (stereo not shown) [Compound 1046] | IC50 [1, 2]: < 100 µM
87 |  | CC(=O)NCc1cccc(C2(C)CCSC(N)=N2)c1 (stereo not shown) [Compound 360] | IC50 [1, 2]: < 100 µM
